Patent US12653809B2, “Urea, amide, and substituted heteroaryl compounds for CBL-B inhibition” (Nurix Therapeutics, Inc., priority 2019, dated 2026)
Where two headings read alike, the source gives them in different places.

Molecular target: T1, Cbl-b (truncated variant, UniProt number Q13191) (Homo sapiens, UniProt Q13191)
T1 construct: made in house
Experiment: Cbl-b displacement assay (Cbl-b inhibition assay, fluorophore-labeled probe)
Format: binding
Text: As described in Biological Example 1A, a Cbl-b activity assay (Cbl-b inhibition assay) used to measure the IC50 values for Cbl-b inhibition uses a mixture comprising candidate compound, Cbl-b (truncated, with an Avitag, and biotinylated), a fluorescently-labeled E2 enzyme UbcH5B labelled with ubiquitin conjugated to BODIPY-fluorescein (UbcH5B-Ub), streptavidin-terbium, and assay buffer. In one embodiment, the Cbl-b activity assay (Cbl-b inhibition assay) used to measure IC50 for inhibition of Cbl-b uses the conditions described in Biological Example 1A with 12 nM Cbl-b. […] In another embodiment, the Cbl-b activity assay (Cbl-b inhibition assay) used to measure IC50 for inhibition of Cbl-b uses the conditions described in Biological Example 1B, with candidate compound, 0.125 nM Cbl-b (truncated, with an avitag, and biotinylated), fluorescently labelled inhibitor probe, and assay buffer. Displacement of the inhibitor probe indicates Cbl-b activity.
Candidate compounds were evaluated for their ability to bind and inhibit Cbl-b, an E3 ubiquitin-protein ligase, as evidenced by their ability to displace a fluorophore-labeled probe (Example 168) bound to Cbl-b.
The ability of candidate compounds to displace a known inhibitor and thereby inhibit Cbl-b activity was measured by monitoring the interaction of Cbl-b with a fluorophore-labeled probe in the presence of the candidate compound. A truncated variant of Cbl-b (UniProt number Q13191; SEQ ID NO:1) containing an Avitag at its N-terminus was co-expressed with BirA biotin ligase and purified using a standard protocol (see Dou et al., Nature Structural and Molecular Biology, 8: 982-987, 2013; Avidity LLC).
Fluorescently-labeled inhibitor probe was synthesized and tagged with BODIPY FL (Example 168). Cbl-b displacement assays were performed in a 384-well plate at room temperature in a 10 μL reaction volume by pre-incubating 0.125 nM Cbl-b (final concentration) in an assay buffer containing 20 mM HEPES pH 7.5, 150 mM NaCl, 0.01% Triton X-100, 0.01% BSA, and 0.5 mM TCEP in the presence of a candidate compound in 1% DMSO (final concentration) for one hour. After incubation in the presence of the candidate compound, the plate was incubated for an additional one hour in the presence of an approximate EC40 binding saturation consisting of 150 nM fluorescently-labeled inhibitor probe and 2 nM Streptavidin-Terbium (Cisbio) (final concentrations). Following the one hour incubation, the plates were read for TR-FRET signal at 520/620 nm using an Envision plate reader (Perkin Elmer).
Compounds were ranked into bins A through D as follows for IC50: A indicates <0.1 μM, B indicates 0.1 μM≤IC50<1 μM, C indicates 1 μM≤IC50<5 μM, and D indicates 5 μM≤IC50.

[1] = Biological Example 1B, read-out: IC50 values in the Cbl-b inhibition assay of Biological Example 1B
[2] = displacement assay, 0.125 nM Cbl-b, 150 nM fluorescently-labeled inhibitor probe, read-out: Cbl-b activity IC50

T1 sequence (Q13191 36-427): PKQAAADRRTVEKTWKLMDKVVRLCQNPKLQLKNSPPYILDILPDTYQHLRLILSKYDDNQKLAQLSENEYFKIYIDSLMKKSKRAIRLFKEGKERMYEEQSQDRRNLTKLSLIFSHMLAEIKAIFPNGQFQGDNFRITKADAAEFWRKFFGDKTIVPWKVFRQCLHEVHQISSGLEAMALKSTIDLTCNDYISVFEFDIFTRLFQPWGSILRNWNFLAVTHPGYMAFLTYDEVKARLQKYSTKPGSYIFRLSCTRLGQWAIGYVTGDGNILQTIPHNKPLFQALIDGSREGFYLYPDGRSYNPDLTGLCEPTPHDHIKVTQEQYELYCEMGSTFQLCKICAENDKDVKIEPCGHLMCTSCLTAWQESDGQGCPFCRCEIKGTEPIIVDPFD

Cn1cnnc1CC1(c2cccc(-c3n[nH]c4c(CN5CC[C@H](F)C5)cc(C(F)(F)F)nc34)c2)COC1 [Example 114, (S)-7-((3-fluoropyrrolidin-1-yl)methyl)-3-(3-(3-((4-methyl-4H-1,2,4-triazol-3-yl)methyl)oxetan-3-yl)phenyl)-5-(trifluoromethyl)-1H-pyrazolo[4,3-b]pyridine]
IC50 [1]: < 100 nM | IC50 [2]: < 100 nM

Cn1cnnc1[C@@H](c1cccc(-c2n[nH]c3c(CN4CC[C@H](F)C4)cc(C(F)(F)F)nc23)c1)C1CCC1 [Example 115, 3-(3-((R)-cyclobutyl(4-methyl-4H-1,2,4-triazol-3-yl)methyl)phenyl)-7-(((S)-3-fluoropyrrolidin-1-yl)methyl)-5-(trifluoromethyl)-1H-pyrazolo[4,3-b]pyridine]
IC50 [1]: < 100 nM | IC50 [2]: < 100 nM
